Structures are written as SMILES. pIC50: −log10 of the molar value.

One assay deals with SK-MEL-3 cells. In words: SK-MEL-3 cell proliferation assay. The following applies: Homo sapiens, SK-MEL3; SK-MEL-3 cells, 72 hours, CellTiter-Glo; read-out: SK-MEL-3 IC50. Type of assay: cell-based.
The term pIC50 denotes the negative decadic logarithm of the IC50, by convention in mol/L. For the molecule `O=c1[nH]c2cc3cc(-c4ccc(F)cc4Cl)ccc3nc2[nH]1` [Example 3, 7-(2-chloro-4-fluorophenyl)-1,3-dihydro-2H-imidazo[4,5-b]quinolin-2-one], the pIC50 was 9.30.

For the molecule `O=c1[nH]c2cc3c(nc2[nH]1)CC[C@@H](c1cnn(C(F)F)c1Cl)C3` (single isomer, unassigned) [Example 64-B, (*R)-7-(5-chloro-1-(difluoromethyl)-1H-pyrazol-4-yl)-1,3,5,6,7,8-hexahydro-2H-imidazo[4,5-b]quinolin-2-one], the pIC50 was 9.30.

As to `N#Cc1ccc(-c2ccc3nc4[nH]c(=O)[nH]c4cc3c2)c(Cl)c1` [Example 14, 7-(2-chloro-4-cyanophenyl)-1,3-dihydro-2H-imidazo[4,5-b]quinolin-2-one], the pIC50 was 9.52.

As to `O=c1[nH]c2cc3c(nc2[nH]1)CCN(c1cnn(C(F)F)c1Cl)C3` [Example 50, 7-(5-chloro-1-(difluoromethyl)-1H-pyrazol-4-yl)-1,3,5,6,7,8-hexahydro-2H-imidazo[4,5-b][1,6]naphthyridin-2-one], the pIC50 was 8.92.

`O=c1[nH]c2cc3c(Cl)c(-c4cnn(C(F)F)c4Cl)ccc3nc2[nH]1` [Example 86, 8-chloro-7-(5-chloro-1-(difluoromethyl)-1H-pyrazol-4-yl)-1,3-dihydro-2H-imidazo[4,5-b]quinolin-2-one]: the pIC50 was 10.05.

Take `O=c1[nH]c2cc3cc(-c4cnn(C(F)F)c4C(F)(F)F)ccc3nc2[nH]1` [Example 30, 7-(1-(difluoromethyl)-5-(trifluoromethyl)-1H-pyrazol-4-yl)-1,3-dihydro-2H-imidazo[4,5-b]quinolin-2-one]: the pIC50 was 10.00.

As to `Cc1c(-c2ccc3nc4[nH]c(=O)[nH]c4cc3c2)cnn1C(F)F` [Example 44, 7-(1-(difluoromethyl)-5-methyl-1H-pyrazol-4-yl)-1,3-dihydro-2H-imidazo[4,5-b]quinolin-2-one], the pIC50 was 10.15.

On to `O=c1[nH]c2cc3c(C(F)(F)F)c(-c4ccccc4)ccc3nc2[nH]1` [Example 80, 7-phenyl-8-(trifluoromethyl)-1,3-dihydro-2H-imidazo[4,5-b]quinolin-2-one], for which the pIC50 is 9.30.

Turning to `Cc1ccc(-c2ccc3nc4c(cc3c2Cl)CC(=O)N4)cc1` [Example 2, 5-chloro-6-(p-tolyl)-1,3-dihydropyrrolo[2,3-b]quinolin-2-one], the negative-log IC50 (pIC50) was 7.42.

Turning to `O=c1[nH]c2cc3c(Cl)c(-n4ccc(C(F)(F)F)n4)ccc3nc2[nH]1` [Example 90, 8-chloro-7-(3-(trifluoromethyl)-1H-pyrazol-1-yl)-1,3-dihydro-2H-imidazo[4,5-b]quinolin-2-one], the pIC50 is 8.47.

`O=c1[nH]c2cc3cc(-c4cn(C(F)F)nc4Cl)ccc3nc2[nH]1` [Example 12, 7-(3-chloro-1-(difluoromethyl)-1H-pyrazol-4-yl)-1,3-dihydro-2H-imidazo[4,5-b]quinolin-2-one]: the pIC50 is 9.52.

Consider `O=c1[nH]c2cc3c(nc2[nH]1)CCN(c1cn(C(F)F)nc1Cl)C3` [Example 51, 7-(3-chloro-1-(difluoromethyl)-1H-pyrazol-4-yl)-1,3,5,6,7,8-hexahydro-2H-imidazo[4,5-b][1,6]naphthyridin-2-one], for which the pIC50 is 7.13.

For `O=c1[nH]c2cc3c(C(F)(F)F)c(-c4ccc(F)cc4)ccc3nc2[nH]1` [Example 84, 7-(4-fluorophenyl)-8-(trifluoromethyl)-1,3-dihydro-2H-imidazo[4,5-b]quinolin-2-one], the pIC50 was 8.92.

For `N#Cc1cnc(N2CCc3nc4[nH]c(=O)[nH]c4cc3C2)c(Cl)c1` [Example 56, 7-(3-chloro-5-cyanopyridin-2-yl)-1,3,5,6,7,8-hexahydro-2H-imidazo[4,5-b][1,6]naphthyridin-2-one], the negative-log IC50 (pIC50) is 7.97.

As to `O=c1[nH]c2cc3c(nc2[nH]1)CCN(c1cccc(Cl)c1)C3` [Example 59, 7-(3-chlorophenyl)-1,3,5,6,7,8-hexahydro-2H-imidazo[4,5-b][1,6]naphthyridin-2-one], the pIC50 is 8.64.

For the molecule `Cn1c(=O)[nH]c2nc3ccc(-c4ccc(F)cc4)c(Cl)c3cc21` [Example 93, 8-chloro-7-(4-fluorophenyl)-1-methyl-1,3-dihydro-2H-imidazo[4,5-b]quinolin-2-one], the pIC50 was 8.06.

With `Cc1ccc(-c2ccc3nc4[nH]c(=O)[nH]c4nc3c2Cl)cc1` [Example 92, 5-chloro-6-(p-tolyl)-1,3-dihydro-2H-imidazo[4,5-b]quinoxalin-2-one], the pIC50 is 7.05.

`Cc1ccc(-c2ccc3nc4[nH]c(=O)[nH]c4cc3c2)c(Cl)c1` [Example 25, 7-(2-chloro-4-methylophenyl)-1,3-dihydro-2H-imidazo[4,5-b]quinolin-2-one]: the pIC50 was 8.54.

In the case of `O=c1[nH]c2cc3c(nc2[nH]1)CCN(c1cccc(F)c1)C3` [Example 49, 7-(3-fluorophenyl)-1,3,5,6,7,8-hexahydro-2H-imidazo[4,5-b][1,6]naphthyridin-2-one], the pIC50 is 8.74.

Consider `Nc1ccc(-c2ccc3nc4[nH]c(=O)[nH]c4cc3c2)c(Cl)n1` [Example 19, 7-(6-amino-2-chloropyridin-3-yl)-1,3-dihydro-2H-imidazo[4,5-b]quinolin-2-one], for which the pIC50 was 8.77.

As for `O=c1[nH]c2cc3cc(-c4ccc(Cl)nc4Cl)ccc3nc2[nH]1` [Example 18, 7-(2,6-dichloropyridin-3-yl)-1,3-dihydro-2H-imidazo[4,5-b]quinolin-2-one], the pIC50 is 9.22.

Take `Cc1ccc(-c2ccc3nc4[nH]c(=O)oc4cc3c2Cl)cc1` [Example 94, 8-chloro-7-(p-tolyl)oxazolo[4,5-b]quinolin-2(3H)-one]: the negative-log IC50 (pIC50) was 6.59.

In the case of `O=c1[nH]c2cc3cc(-c4cn(C(F)F)nc4C(F)(F)F)ccc3nc2[nH]1` [Example 31, 7-(1-(difluoromethyl)-3-(trifluoromethyl)-1H-pyrazol-4-yl)-1,3-dihydro-2H-imidazo[4,5-b]quinolin-2-one], the pIC50 is 8.60.

The subject of a further assay is A2058 cells. In words: A2058 cell proliferation assay. The following applies: Homo sapiens, 96 hours, CellTiter-Glo. Type of assay: cell-based. Background: In ATP-based viability assays light output follows the ATP content of the culture.
Regarding `CNc1nc(Cl)ccc1-c1ccc2nc3[nH]c(=O)[nH]c3cc2c1` [Example 41, 7-(6-chloro-2-(methylamino)pyridin-3-yl)-1,3-dihydro-2H-imidazo[4,5-b]quinolin-2-one], the pIC50 is 7.21.

`O=c1[nH]c2cc3cc(-c4ccc(F)cc4Cl)ccc3nc2[nH]1` [Example 3, 7-(2-chloro-4-fluorophenyl)-1,3-dihydro-2H-imidazo[4,5-b]quinolin-2-one] had a pIC50 of 8.92.

Consider `O=c1[nH]c2cc3c(nc2[nH]1)CC[C@@H](c1cnn(C(F)F)c1Cl)C3` (single isomer, unassigned) [Example 64-B, (*R)-7-(5-chloro-1-(difluoromethyl)-1H-pyrazol-4-yl)-1,3,5,6,7,8-hexahydro-2H-imidazo[4,5-b]quinolin-2-one], for which the pIC50 was 8.75.

`O=c1[nH]c2cc3c(nc2[nH]1)CCC(c1cn(C(F)F)nc1Cl)C3` (centres unmarked) [Example 63, 7-(3-chloro-1-(difluoromethyl)-1H-pyrazol-4-yl)-1,3,5,6,7,8-hexahydro-2H-imidazo[4,5-b]quinolin-2-one] showed a negative logarithm of the IC50 (pIC50) of 8.09.

Regarding `N#Cc1ccc(-c2ccc3nc4[nH]c(=O)[nH]c4cc3c2)c(Cl)c1` [Example 14, 7-(2-chloro-4-cyanophenyl)-1,3-dihydro-2H-imidazo[4,5-b]quinolin-2-one], the negative logarithm of the IC50 (pIC50) is 8.96.

The molecule `O=c1[nH]c2cc3c(nc2[nH]1)CCN(c1ccc(Cl)nc1C(F)(F)F)C3` [Example 62, 7-(6-chloro-2-(trifluoromethyl)pyridin-3-yl)-1,3,5,6,7,8-hexahydro-2H-imidazo[4,5-b][1,6]naphthyridin-2-one] had a pIC50 of 7.50.

Turning to `O=c1[nH]c2cc3c(nc2[nH]1)CCN(c1cnn(C(F)F)c1Cl)C3` [Example 50, 7-(5-chloro-1-(difluoromethyl)-1H-pyrazol-4-yl)-1,3,5,6,7,8-hexahydro-2H-imidazo[4,5-b][1,6]naphthyridin-2-one], the pIC50 was 8.12.

The molecule `O=c1[nH]c2cc3c(Cl)c(-c4cnn(C(F)F)c4Cl)ccc3nc2[nH]1` [Example 86, 8-chloro-7-(5-chloro-1-(difluoromethyl)-1H-pyrazol-4-yl)-1,3-dihydro-2H-imidazo[4,5-b]quinolin-2-one] gave a negative-log IC50 (pIC50) of 9.05.

Take `O=c1[nH]c2cc3cc(-c4cnn(C(F)F)c4C(F)(F)F)ccc3nc2[nH]1` [Example 30, 7-(1-(difluoromethyl)-5-(trifluoromethyl)-1H-pyrazol-4-yl)-1,3-dihydro-2H-imidazo[4,5-b]quinolin-2-one]: the pIC50 was 9.05.

As for `O=c1[nH]c2cc3c(nc2[nH]1)CCC(c1ccc(F)cc1)C3` (centres unmarked) [Example 57, 7-(4-fluorophenyl)-1,3,5,6,7,8-hexahydro-2H-imidazo[4,5-b]quinolin-2-one], the pIC50 is 7.49.

Regarding `Cc1c(-c2ccc3nc4[nH]c(=O)[nH]c4cc3c2)cnn1C(F)F` [Example 44, 7-(1-(difluoromethyl)-5-methyl-1H-pyrazol-4-yl)-1,3-dihydro-2H-imidazo[4,5-b]quinolin-2-one], the pIC50 is 9.77.

In turn, `O=c1[nH]c2cc3c(Cl)c(-c4cn(C(F)F)nc4Cl)ccc3nc2[nH]1` [Example 87, 8-chloro-7-(3-chloro-1-(difluoromethyl)-1H-pyrazol-4-yl)-1,3-dihydro-2H-imidazo[4,5-b]quinolin-2-one] gave a pIC50 of 8.70.

`[2H]C([2H])([2H])c1c(-c2ccc3nc4[nH]c(=O)[nH]c4cc3c2)cnn1C(F)F` [Example 45, 7-(1-(difluoromethyl)-5-(methyl-d3)-1H-pyrazol-4-yl)-1,3-dihydro-2H-imidazo[4,5-b]quinolin-2-one] gave a pIC50 of 9.72.

The molecule `O=c1[nH]c2cc3cc(-c4cnn(C(F)F)c4OC(F)F)ccc3nc2[nH]1` [Example 42, 7-(5-(difluoromethoxy)-1-(difluoromethyl)-1H-pyrazol-4-yl)-1,3-dihydro-2H-imidazo[4,5-b]quinolin-2-one] had a pIC50 of 9.40.

`O=c1[nH]c2cc3c(nc2[nH]1)CCN(c1nc(C(F)(F)F)ccc1F)C3` [Example 60, 7-(3-fluoro-6-(trifluoromethyl)pyridin-2-yl)-1,3,5,6,7,8-hexahydro-2H-imidazo[4,5-b][1,6]naphthyridin-2-one] had a pIC50 of 8.77.

Consider `O=c1[nH]c2cc3cc(-c4ncn(C(F)F)c4Cl)ccc3nc2[nH]1` [Example 37, 7-(5-chloro-1-(difluoromethyl)-1H-imidazol-4-yl)-1,3-dihydro-2H-imidazo[4,5-b]quinolin-2-one], for which the negative-log IC50 (pIC50) was 9.00.

`O=c1[nH]c2cc3c(nc2[nH]1)CCN(c1ccc(F)c(C(F)(F)F)n1)C3` [Example 61, 7-(5-fluoro-6-(trifluoromethyl)pyridin-2-yl)-1,3,5,6,7,8-hexahydro-2H-imidazo[4,5-b][1,6]naphthyridin-2-one] had a pIC50 of 8.72.

Regarding `O=c1[nH]c2cc3cc(-c4cnn(C(F)F)c4Cl)c(Cl)cc3nc2[nH]1` [Example 88, 6-chloro-7-(5-chloro-1-(difluoromethyl)-1H-pyrazol-4-yl)-1,3-dihydro-2H-imidazo[4,5-b]quinolin-2-one], the negative-log IC50 (pIC50) is 8.04.

The molecule `CNc1ccc(-c2ccc3nc4[nH]c(=O)[nH]c4cc3c2)c(Cl)n1` [Example 40, 7-(2-chloro-6-(methylamino)pyridin-3-yl)-1,3-dihydro-2H-imidazo[4,5-b]quinolin-2-one] had a negative-log IC50 (pIC50) of 8.10.

As to `O=c1[nH]c2cc3cc(-c4ccc(Cl)nc4OC(F)F)ccc3nc2[nH]1` [Example 39, 7-(6-chloro-2-(difluoromethoxy)pyridin-3-yl)-1,3-dihydro-2H-imidazo[4,5-b]quinolin-2-one], the pIC50 was 8.48.

On to `O=c1[nH]c2cc3cc(-c4cn(C(F)F)nc4Cl)c(Cl)cc3nc2[nH]1` [Example 89, 6-chloro-7-(3-chloro-1-(difluoromethyl)-1H-pyrazol-4-yl)-1,3-dihydro-2H-imidazo[4,5-b]quinolin-2-one], for which the pIC50 is 7.73.

Values taken from US20260265251A1 (priority 2023, published 2026).
